Legend:
[1] = system: SARS-CoV-2 S pseudotype virus B.1.429 mutant strain (ε strain); type: cell-based; settings: ε mutant strain (B.1.429); 100 μM; ACE2-expressing HEK293T cells; GFP fluorescence; FIG. 1
[2] = system: SARS-CoV-2 S pseudotype virus N501Y mutant strain; type: cell-based

## COCCOCCOC(=O)N[C@@H](CC(C)C)C(=O)N[C@@H](Cc1ccccc1)C(=O)C(=O)NC1CC1 [SNJ-1945]
[1]
  entry inhibition of pseudotype virus into cells: inhibits entry
[2]
  entry inhibition of pseudotype virus into cells: inhibits entry

From US20230390235A1, “THERAPEUTIC AGENT FOR COVID-19” (priority 2020, published 2023)
